These results are taken from US12479847B2 (DANA-FARBER CANCER INSTITUTE, INC., priority 2019, dated 2025).

What all share (experiment): KINOMEscan (ScanMAX) kinase profiling
What all share (type): binding

For experiment [1], the target named is T1, panel of 468 kinases (Homo sapiens, UniProt O14920).
T1 construct: purchased KINOMEscan (ScanMAX) service
T1 sequence (O14920 1-756): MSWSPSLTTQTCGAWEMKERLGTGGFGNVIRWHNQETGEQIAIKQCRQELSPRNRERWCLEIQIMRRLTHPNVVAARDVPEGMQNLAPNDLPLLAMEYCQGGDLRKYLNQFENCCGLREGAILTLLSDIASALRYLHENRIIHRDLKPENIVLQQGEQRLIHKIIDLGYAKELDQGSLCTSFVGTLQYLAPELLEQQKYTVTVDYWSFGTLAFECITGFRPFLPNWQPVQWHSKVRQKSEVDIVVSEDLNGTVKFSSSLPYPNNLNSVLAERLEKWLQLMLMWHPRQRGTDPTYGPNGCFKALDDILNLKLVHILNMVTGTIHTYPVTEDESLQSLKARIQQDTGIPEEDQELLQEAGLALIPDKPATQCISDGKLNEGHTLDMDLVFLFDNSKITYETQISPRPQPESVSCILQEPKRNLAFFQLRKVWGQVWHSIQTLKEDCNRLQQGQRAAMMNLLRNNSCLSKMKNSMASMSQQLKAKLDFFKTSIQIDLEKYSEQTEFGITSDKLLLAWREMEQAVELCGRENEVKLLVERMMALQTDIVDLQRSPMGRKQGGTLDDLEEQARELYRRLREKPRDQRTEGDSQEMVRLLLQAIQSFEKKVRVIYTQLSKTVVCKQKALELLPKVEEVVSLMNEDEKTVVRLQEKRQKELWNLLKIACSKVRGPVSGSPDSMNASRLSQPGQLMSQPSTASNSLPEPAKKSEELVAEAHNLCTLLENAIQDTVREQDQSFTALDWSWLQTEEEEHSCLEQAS
As to conditions: IKK-beta; 1 μM; read-out: % control.

In experiment [2] the target is T2, panel of 468 kinases (Homo sapiens, UniProt P00533, DEL752-759).
T2 construct: purchased KINOMEscan (ScanMAX) service
T2 sequence (P00533 with tags, fused parts or gaps DEL752-759): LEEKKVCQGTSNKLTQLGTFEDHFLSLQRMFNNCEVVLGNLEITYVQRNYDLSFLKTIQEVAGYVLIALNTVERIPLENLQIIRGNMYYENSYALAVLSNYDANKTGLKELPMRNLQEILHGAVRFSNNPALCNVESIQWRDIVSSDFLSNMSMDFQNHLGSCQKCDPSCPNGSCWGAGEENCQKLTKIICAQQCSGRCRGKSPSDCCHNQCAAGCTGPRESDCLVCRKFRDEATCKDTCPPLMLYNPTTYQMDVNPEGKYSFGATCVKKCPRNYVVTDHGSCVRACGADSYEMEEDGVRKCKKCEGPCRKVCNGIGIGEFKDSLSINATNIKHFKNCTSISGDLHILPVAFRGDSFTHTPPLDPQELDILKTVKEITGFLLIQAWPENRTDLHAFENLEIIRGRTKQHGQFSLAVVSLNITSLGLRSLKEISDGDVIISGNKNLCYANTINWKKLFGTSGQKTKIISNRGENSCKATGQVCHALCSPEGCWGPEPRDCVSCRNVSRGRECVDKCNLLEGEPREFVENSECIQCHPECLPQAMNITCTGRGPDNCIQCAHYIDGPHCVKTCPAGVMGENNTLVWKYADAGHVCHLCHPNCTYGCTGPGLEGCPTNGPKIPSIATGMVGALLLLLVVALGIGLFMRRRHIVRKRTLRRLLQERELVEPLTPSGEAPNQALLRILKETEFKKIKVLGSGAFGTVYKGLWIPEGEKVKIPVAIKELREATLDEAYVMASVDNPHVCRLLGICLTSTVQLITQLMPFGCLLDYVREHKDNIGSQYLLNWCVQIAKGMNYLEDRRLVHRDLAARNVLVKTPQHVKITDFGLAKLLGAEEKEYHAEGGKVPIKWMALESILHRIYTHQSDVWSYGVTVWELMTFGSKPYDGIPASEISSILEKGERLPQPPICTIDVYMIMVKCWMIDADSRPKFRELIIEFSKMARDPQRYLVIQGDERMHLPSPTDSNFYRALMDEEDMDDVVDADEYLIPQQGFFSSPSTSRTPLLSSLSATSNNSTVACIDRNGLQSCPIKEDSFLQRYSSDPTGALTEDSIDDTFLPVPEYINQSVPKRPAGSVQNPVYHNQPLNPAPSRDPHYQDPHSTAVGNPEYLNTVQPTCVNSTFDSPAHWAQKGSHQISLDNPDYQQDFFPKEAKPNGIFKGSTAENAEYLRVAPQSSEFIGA
As to conditions: EGFR(S752-I759del); 1 μM; read-out: % control.

The target of experiment [3] is T3, panel of 468 kinases (Homo sapiens, UniProt P10721, A829P).
T3 construct: purchased KINOMEscan (ScanMAX) service
T3 sequence (P10721 26-976 A829P): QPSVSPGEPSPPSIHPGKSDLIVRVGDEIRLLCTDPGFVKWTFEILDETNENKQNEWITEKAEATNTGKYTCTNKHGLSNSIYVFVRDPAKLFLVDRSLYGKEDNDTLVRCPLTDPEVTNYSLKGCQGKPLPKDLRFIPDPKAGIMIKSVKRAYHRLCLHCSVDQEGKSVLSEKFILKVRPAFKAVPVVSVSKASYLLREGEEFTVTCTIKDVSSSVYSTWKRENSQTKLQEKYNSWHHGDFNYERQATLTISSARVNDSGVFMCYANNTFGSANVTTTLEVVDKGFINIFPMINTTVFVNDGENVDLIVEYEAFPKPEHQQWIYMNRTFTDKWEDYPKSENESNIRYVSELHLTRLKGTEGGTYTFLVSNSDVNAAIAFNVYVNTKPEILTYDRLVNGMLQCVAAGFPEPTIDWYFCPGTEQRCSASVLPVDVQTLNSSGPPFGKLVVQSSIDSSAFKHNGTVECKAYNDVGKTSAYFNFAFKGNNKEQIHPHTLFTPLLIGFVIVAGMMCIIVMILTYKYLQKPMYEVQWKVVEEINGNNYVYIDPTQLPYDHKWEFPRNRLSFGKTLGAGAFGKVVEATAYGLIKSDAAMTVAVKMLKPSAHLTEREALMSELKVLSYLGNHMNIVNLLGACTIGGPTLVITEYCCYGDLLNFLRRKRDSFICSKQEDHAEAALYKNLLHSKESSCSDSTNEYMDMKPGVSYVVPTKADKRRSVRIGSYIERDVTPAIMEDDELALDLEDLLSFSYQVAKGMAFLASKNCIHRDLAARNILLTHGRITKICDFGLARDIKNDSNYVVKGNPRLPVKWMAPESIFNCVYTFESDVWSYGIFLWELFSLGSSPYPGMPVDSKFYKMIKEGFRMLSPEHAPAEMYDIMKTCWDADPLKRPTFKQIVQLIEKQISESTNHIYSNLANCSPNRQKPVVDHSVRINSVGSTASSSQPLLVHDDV
As to conditions: KIT(A829P); 1 μM; read-out: % control.

Experiment [4] concerns the target T4, panel of 468 kinases (Homo sapiens, UniProt P23443).
T4 construct: purchased KINOMEscan (ScanMAX) service
The conditions noted are these: S6K1; 1 μM; read-out: % control.

In experiment [5] the target is T5, panel of 468 kinases (Homo sapiens, UniProt Q12852).
T5 construct: purchased KINOMEscan (ScanMAX) service
T5 sequence (Q12852 1-859): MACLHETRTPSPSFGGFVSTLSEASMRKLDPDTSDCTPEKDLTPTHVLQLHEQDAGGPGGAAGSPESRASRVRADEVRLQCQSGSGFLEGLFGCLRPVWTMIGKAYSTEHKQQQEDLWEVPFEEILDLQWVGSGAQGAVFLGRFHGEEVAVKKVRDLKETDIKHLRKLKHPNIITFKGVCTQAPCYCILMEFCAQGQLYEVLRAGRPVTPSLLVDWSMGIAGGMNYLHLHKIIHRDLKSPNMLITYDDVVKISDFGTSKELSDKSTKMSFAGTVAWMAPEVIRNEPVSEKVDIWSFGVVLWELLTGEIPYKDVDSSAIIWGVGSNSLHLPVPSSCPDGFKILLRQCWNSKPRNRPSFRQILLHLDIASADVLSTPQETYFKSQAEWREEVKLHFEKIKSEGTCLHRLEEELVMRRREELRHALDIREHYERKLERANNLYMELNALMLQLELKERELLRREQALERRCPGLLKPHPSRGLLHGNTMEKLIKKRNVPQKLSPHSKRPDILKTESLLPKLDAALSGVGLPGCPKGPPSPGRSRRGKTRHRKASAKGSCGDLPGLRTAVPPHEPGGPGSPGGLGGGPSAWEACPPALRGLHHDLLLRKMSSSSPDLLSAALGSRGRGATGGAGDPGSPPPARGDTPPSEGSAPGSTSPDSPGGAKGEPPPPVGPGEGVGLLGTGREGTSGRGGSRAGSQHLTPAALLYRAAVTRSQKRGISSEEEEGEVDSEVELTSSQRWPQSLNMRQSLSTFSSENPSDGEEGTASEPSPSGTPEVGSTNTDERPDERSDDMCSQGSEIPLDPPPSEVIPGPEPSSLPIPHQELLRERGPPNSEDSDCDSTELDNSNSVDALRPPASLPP
The conditions noted are these: DLK; 1 μM; read-out: % control.

Experiment [6] concerns the target T6, panel of 468 kinases (Homo sapiens, UniProt Q9NQU5).
T6 construct: purchased KINOMEscan (ScanMAX) service
As to conditions: PAK6; 1 μM; read-out: % control.

Experiment [7] deals with T7, panel of 468 kinases (Homo sapiens, UniProt Q9P0L2).
T7 construct: purchased KINOMEscan (ScanMAX) service
T7 sequence (Q9P0L2 whole entry): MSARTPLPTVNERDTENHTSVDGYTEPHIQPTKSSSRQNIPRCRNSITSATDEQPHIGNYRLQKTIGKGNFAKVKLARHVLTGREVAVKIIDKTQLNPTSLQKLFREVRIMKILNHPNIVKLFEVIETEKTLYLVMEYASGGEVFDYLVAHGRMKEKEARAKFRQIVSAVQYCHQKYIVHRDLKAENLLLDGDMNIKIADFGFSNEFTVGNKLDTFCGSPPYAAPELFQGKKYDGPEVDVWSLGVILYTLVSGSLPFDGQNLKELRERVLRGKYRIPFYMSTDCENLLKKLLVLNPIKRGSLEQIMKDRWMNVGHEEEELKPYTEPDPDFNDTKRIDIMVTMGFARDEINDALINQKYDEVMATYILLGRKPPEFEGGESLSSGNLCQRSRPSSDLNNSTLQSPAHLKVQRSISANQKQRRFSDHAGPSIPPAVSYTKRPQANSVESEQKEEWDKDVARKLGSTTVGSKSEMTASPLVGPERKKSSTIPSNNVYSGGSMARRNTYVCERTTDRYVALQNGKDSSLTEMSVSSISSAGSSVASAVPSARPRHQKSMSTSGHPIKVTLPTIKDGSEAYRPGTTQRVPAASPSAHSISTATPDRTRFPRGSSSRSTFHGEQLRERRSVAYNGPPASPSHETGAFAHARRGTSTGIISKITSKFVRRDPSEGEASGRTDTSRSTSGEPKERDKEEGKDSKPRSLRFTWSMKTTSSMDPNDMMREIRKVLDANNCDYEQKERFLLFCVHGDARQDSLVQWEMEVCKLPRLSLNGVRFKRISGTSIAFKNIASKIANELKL
The conditions noted are these: MARK1; 1 μM; read-out: % control.

Experiment [8] has as its target T8, panel of 468 kinases (Homo sapiens, UniProt Q9Y243).
T8 construct: purchased KINOMEscan (ScanMAX) service
The conditions noted are these: AKT3; 1 μM; read-out: % control.

The target of experiment [9] is T9, panel of 468 kinases (Homo sapiens, UniProt Q9Y4K4).
T9 construct: purchased KINOMEscan (ScanMAX) service
As to conditions: MAP4K5; 1 μM; read-out: % control.

T8 sequence (Q9Y243 whole entry): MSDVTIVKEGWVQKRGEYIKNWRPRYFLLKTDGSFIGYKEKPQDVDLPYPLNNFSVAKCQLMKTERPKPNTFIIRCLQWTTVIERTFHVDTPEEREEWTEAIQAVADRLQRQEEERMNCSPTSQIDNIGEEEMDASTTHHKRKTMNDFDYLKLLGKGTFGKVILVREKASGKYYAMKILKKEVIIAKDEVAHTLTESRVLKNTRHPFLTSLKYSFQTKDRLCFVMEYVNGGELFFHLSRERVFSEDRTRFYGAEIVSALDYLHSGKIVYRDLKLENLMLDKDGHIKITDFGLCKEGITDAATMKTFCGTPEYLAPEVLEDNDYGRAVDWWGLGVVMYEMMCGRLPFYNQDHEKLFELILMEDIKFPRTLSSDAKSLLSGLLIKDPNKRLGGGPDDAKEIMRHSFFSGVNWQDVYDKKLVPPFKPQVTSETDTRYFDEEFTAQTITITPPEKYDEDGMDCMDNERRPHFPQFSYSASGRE
T6 sequence (Q9NQU5 whole entry): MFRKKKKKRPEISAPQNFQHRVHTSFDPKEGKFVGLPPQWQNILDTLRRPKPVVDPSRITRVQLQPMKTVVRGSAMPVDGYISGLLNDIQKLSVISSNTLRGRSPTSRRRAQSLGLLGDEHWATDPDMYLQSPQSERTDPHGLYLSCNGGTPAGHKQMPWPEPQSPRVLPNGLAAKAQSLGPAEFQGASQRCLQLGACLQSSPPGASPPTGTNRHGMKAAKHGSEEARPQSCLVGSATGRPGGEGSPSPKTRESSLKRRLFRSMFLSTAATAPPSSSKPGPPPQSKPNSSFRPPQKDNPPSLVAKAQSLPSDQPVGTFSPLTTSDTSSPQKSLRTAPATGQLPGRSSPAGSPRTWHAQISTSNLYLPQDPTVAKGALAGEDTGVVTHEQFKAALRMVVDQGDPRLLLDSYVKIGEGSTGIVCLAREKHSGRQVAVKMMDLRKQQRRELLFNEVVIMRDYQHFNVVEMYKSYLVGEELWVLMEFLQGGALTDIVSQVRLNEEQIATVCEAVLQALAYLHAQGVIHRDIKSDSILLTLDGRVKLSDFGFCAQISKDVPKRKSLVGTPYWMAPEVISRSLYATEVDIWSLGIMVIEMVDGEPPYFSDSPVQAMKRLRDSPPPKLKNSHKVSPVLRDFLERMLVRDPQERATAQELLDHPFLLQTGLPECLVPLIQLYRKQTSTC
T4 sequence (P23443 whole entry): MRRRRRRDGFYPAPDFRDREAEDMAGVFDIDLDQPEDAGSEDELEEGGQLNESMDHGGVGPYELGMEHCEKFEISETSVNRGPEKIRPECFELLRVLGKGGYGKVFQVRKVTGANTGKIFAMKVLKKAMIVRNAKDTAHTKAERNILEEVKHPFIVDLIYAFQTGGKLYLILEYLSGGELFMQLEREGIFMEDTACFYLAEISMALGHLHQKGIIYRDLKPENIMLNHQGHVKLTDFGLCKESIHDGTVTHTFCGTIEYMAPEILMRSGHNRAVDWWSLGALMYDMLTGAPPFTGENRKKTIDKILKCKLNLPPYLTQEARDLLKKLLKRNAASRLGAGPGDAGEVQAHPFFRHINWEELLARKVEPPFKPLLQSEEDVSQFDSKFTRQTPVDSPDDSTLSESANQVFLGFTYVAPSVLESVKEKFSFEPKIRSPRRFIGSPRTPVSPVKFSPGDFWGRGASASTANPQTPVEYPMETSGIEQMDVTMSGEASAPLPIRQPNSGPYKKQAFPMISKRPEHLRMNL

Consider `CNc1nc(Nc2ccc(C(=O)N3CCC(N4CCOCC4)CC3)c3c2OCO3)nc2[nH]cc(Cl)c12` [Compound 75, (7-((5-chloro-4-(methylamino)-7H-pyrrolo[2,3-d]pyrimidin-2-yl)amino)benzo[d][1,3]dioxol-4-yl)(4-morpholinopiperidin-1-yl)methanone], for which the remaining binding at 1 µM in experiment [1] worked out at 96%; in [2], 94%; in [3], 50%; in experiment [4], 63%; in experiment [5], 100%; in [6], 100%. The remaining binding at 1 µM in experiment [7] is 100%; in experiment [8], 100%; in experiment [9] it was 91%.
As to `CNc1nc(Nc2ccc(P3(=O)CCN(C4CCOCC4)CC3)cc2OC)nc2[nH]cc(Cl)c12` [Compound 77, 4-(4-((5-chloro-4-(methylamino)-7H-pyrrolo[2,3-d]pyrimidin-2-yl)amino)-3-methoxyphenyl)-1-(tetrahydro-2H-pyran-4-yl)-1,4-azaphosphinane 4-oxide], the remaining binding at 1 µM amounted to 95% in [1]; 100% in experiment [2]; 78% in [3]; 98% in experiment [4]; 100% in experiment [5]; 95% in [6]. Also, the figures for the remaining binding at 1 µM in experiment [7], in experiment [8] and in experiment [9] were 96%, 100% and 100%, respectively.
Take `CNc1nc(Nc2ccc(S(=O)(=O)N3CCC(N4CCOCC4)CC3)cc2OC)nc2[nH]cc(Cl)c12` [Compound 12, 5-chloro-N2-(2-methoxy-4-((4-morpholinopiperidin-1-yl)sulfonyl)phenyl)-N4-methyl-7H-pyrrolo[2,3-d]pyrimidine-2,4-diamine]: the remaining binding at 1 µM in experiment [1] amounted to 100%; in experiment [2], 100%; in experiment [3] it was 76%; in [4], 100%; in experiment [5] it was 95%; in experiment [6], 100%. Moreover, the remaining binding at 1 µM in experiment [7], in experiment [8] and in experiment [9] was 100% each time.
